Measurements: article PMC7395850 (Biochemical and biophysical research communications, 2019)

What was measured:
Assay type in all cases: biochemical
N-phos in mouse sEH = biological target: T1, N-phos in mouse sEH (Mus musculus, UniProt P34914); experiment: N-phos activity assay with AttoPhos substrate, mouse sEH; conditions: for selectivity index (N-phos over C-EH) in mouse sEH: IC50 C-EH / IC50 N-phos; for inhibition of mouse N-phos: inhibitor at 6 μM; for inhibition of mouse N-phos, in words: screening, 6 μM; for Ki: read-out: KI for mouse N-phos, competitive with respect to AttoPhos; for inhibition mechanism, mouse N-phos: with respect to the substrate AttoPhos; for species preference of N-phos inhibition (mouse versus human), in words: mouse at 6 μM versus human at 30 μM (Figure 1D)
T1 sequence (P34914 1-554): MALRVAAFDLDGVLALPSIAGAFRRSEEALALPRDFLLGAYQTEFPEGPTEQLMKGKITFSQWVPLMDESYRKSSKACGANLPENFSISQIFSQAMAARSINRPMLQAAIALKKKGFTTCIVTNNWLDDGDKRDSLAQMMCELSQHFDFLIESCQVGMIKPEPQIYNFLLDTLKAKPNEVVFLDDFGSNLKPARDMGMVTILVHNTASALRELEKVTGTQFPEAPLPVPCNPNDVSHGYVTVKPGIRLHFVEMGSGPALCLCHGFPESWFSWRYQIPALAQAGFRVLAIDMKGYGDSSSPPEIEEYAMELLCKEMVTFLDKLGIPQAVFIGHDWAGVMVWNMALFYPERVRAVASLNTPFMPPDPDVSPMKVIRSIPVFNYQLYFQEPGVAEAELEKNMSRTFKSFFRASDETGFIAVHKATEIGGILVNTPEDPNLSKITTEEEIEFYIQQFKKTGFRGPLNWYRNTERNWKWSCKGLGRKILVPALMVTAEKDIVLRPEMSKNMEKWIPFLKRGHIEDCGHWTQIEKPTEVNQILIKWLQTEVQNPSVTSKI

N-phos in human sEH = biological target: T2, N-phos in human sEH (Homo sapiens, UniProt P34913); experiment: N-phos activity assay with AttoPhos substrate, human sEH; conditions: for inhibition of human N-phos, in words: screening, 30 μM; for inhibition of human N-phos: inhibitor at 30 μM; for selectivity index (N-phos over C-EH) in human sEH: IC50 C-EH / IC50 N-phos; for Ki: read-out: KI for human N-phos, competitive with respect to AttoPhos; for inhibition mechanism, human N-phos: with respect to the substrate AttoPhos; for species preference of N-phos inhibition (human versus mouse), in words: human at 30 μM versus mouse at 6 μM (Figure 1B)
T2 sequence (P34913 1-555): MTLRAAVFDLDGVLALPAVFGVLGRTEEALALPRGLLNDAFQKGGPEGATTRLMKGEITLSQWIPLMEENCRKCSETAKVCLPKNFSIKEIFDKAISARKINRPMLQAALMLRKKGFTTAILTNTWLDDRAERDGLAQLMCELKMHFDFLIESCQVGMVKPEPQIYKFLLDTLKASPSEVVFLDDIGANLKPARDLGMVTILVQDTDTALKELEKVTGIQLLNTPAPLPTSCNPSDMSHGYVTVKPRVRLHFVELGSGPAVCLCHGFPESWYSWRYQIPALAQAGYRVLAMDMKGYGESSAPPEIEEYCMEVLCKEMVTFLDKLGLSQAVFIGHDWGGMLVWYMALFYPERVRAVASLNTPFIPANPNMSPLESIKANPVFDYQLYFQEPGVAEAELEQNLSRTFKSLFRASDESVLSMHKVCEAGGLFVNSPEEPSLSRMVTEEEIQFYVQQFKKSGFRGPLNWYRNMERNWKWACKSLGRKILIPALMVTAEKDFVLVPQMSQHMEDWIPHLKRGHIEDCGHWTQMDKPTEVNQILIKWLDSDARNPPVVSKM

C-EH in mouse sEH = biological target: T3, C-EH in mouse sEH (Mus musculus, UniProt P34914); experiment: C-EH activity assay with PHOME substrate, mouse sEH; conditions: for time-dependent change in C-EH inhibition, mouse sEH: preincubation time-window 1.7−120 min; for IC50: read-out: IC50 for C-EH in mouse sEH, mouse sEH, PHOME substrate
T3 sequence (P34914 1-554): T1 sequence (P34914 1-554)

C-EH in human sEH = biological target: T4, C-EH in human sEH (Homo sapiens, UniProt P34913); experiment: C-EH activity assay with PHOME substrate, human sEH; conditions: for IC50: read-out: IC50 for C-EH in human sEH, human sEH, PHOME substrate; for time-dependent change in C-EH inhibition, human sEH: preincubation 1.7, 10, 30 and 120 min
T4 sequence (P34913 1-555): T2 sequence (P34913 1-555)

| inhibition of mouse N-phos (N-phos in mouse sEH) [%] | inhibition of mouse N-phos, in words (N-phos in mouse sEH) | inhibition of human N-phos, in words (N-phos in human sEH) | IC50 (C-EH in mouse sEH) [µM] | inhibition of human N-phos (N-phos in human sEH) [%] | Ki (N-phos in mouse sEH) [µM] | inhibition mechanism, mouse N-phos (N-phos in mouse sEH) | Ki (N-phos in human sEH) [µM] | inhibition mechanism, human N-phos (N-phos in human sEH) | IC50 (C-EH in human sEH) [µM] | SMILES | selectivity index (N-phos over C-EH) in human sEH (N-phos in human sEH) | other results |
| --- | --- | --- | --- | --- | --- | --- | --- | --- | --- | --- | --- | --- |
| > 75 | inhibitory | inhibitory | ~200 |  |  |  |  |  |  | O=C(N[C@@H](Cc1c[nH]c2ccccc12)C(=O)O)OCC1c2ccccc2-c2ccccc21 [Compound 78, Fmoc-L-Trp] |  | selectivity index (N-phos over C-EH) in mouse sEH (N-phos in mouse sEH): ~ 50; time-dependent change in C-EH inhibition, mouse sEH (C-EH in mouse sEH): did not display any time-dependent change |
| > 75 | inhibitory | inhibitory |  | > 72 |  |  |  |  |  | CC(C)(C)OC(=O)n1cc(C[C@@H](NC(=O)OCC2c3ccccc3-c3ccccc32)C(=O)O)c2ccccc21 [Compound 96, Fmoc-D-Trp(Boc)] |  |  |
|  |  |  |  | > 72 | 9 | competitively | 0.89 | competitively | 190 | CC(C)(C)OC(=O)N[C@@H](Cc1ccc(OCc2ccccc2)cc1)C(=O)O [Compound 23, Boc-L-Tyr(Bzl)] | 127 | species preference of N-phos inhibition (human versus mouse), in words (N-phos in human sEH): more potent on inhibiting the human N-phos than the mouse enzyme; preference for human N-phos over mouse N-phos (N-phos in human sEH; ratio of KI values): 10 fold; time-dependent change in C-EH inhibition, human sEH (C-EH in human sEH): no time-dependent change |
| > 75 |  |  | 85 |  | 1.1 | competitively | 26 | competitively |  | N#Cc1ccc(C[C@H](NC(=O)OCC2c3ccccc3-c3ccccc32)C(=O)O)cc1 [Compound 67, Fmoc-L-Phe(4-CN)] |  | selectivity index (N-phos over C-EH) in mouse sEH (N-phos in mouse sEH): 37; species preference of N-phos inhibition (mouse versus human), in words (N-phos in mouse sEH): more potent on inhibiting the mouse N-phos than the human enzyme; preference for mouse N-phos over human N-phos (N-phos in mouse sEH; ratio of KI values): 24 fold; time-dependent change in C-EH inhibition, mouse sEH (C-EH in mouse sEH): did not display any time-dependent change |
| > 75 |  |  |  |  |  |  |  |  |  | O=C(N[C@@H](Cc1ccccc1Cl)C(=O)O)OCC1c2ccccc2-c2ccccc21 [Compound 73, Fmoc-L-Phe(2-Cl)] |  | species preference of N-phos inhibition (mouse versus human), in words (N-phos in mouse sEH): more potent on inhibiting the mouse N-phos than the human enzyme |

Further lines, the compound ahead of its results:

| SMILES | inhibition of mouse N-phos (N-phos in mouse sEH) [%] | inhibition of mouse N-phos, in words (N-phos in mouse sEH) | inhibition of human N-phos, in words (N-phos in human sEH) | IC50 (C-EH in mouse sEH) [µM] | inhibition of human N-phos (N-phos in human sEH) [%] | Ki (N-phos in mouse sEH) [µM] | inhibition mechanism, mouse N-phos (N-phos in mouse sEH) | Ki (N-phos in human sEH) [µM] | inhibition mechanism, human N-phos (N-phos in human sEH) | IC50 (C-EH in human sEH) [µM] | selectivity index (N-phos over C-EH) in human sEH (N-phos in human sEH) | other results |
| --- | --- | --- | --- | --- | --- | --- | --- | --- | --- | --- | --- | --- |
| CC(C)(C)OC(=O)n1cc(C[C@H](NC(=O)OCC2c3ccccc3-c3ccccc32)C(=O)O)c2ccccc21 [Compound 95, Fmoc-L-Trp(Boc)] | > 75 | inhibitory | inhibitory |  | > 72 |  |  |  |  |  |  |  |
| CC(=O)N[C@@H](CSC/C=C(\C)CC/C=C(\C)CCC=C(C)C)C(=O)O [AFC, N-Acetyl-S-farnesyl-L-cysteine, reference compound] |  |  |  | 48 |  | 33 | competitively | 1.1 | competitively | > 100 | > 29 |  |
| COc1ccc(C[C@@H](NC(=O)OCC2c3ccccc3-c3ccccc32)C(=O)O)cc1 [Compound 72, Fmoc-D-Tyr(Me)] |  |  |  |  | > 72 |  |  |  |  | > 200 | > 31 | time-dependent change in C-EH inhibition, human sEH (C-EH in human sEH): no time-dependent change |
| CC(C)(C)OC(=O)N[C@H](Cc1ccc(OC(=O)OCc2ccccc2Br)cc1)C(=O)O [Compound 30, Boc-D-Tyr(2-Br-Z)] |  |  |  |  | > 72 |  |  |  |  |  |  | species preference of N-phos inhibition (human versus mouse), in words (N-phos in human sEH): more potent on inhibiting the human N-phos than the mouse enzyme |
